# Test results reported in patent publication US20250250230A1, “HETEROCYCLIC COMPOUND” (TAKEDA PHARMACEUTICAL COMPANY LIMITED, priority 2022, published 2025).
# Molecular target: T1, human orexin type 2 receptor (Homo sapiens, UniProt O43614)
# T1 construct: expressed in transfected cells
# T1 sequence (O43614 1-444): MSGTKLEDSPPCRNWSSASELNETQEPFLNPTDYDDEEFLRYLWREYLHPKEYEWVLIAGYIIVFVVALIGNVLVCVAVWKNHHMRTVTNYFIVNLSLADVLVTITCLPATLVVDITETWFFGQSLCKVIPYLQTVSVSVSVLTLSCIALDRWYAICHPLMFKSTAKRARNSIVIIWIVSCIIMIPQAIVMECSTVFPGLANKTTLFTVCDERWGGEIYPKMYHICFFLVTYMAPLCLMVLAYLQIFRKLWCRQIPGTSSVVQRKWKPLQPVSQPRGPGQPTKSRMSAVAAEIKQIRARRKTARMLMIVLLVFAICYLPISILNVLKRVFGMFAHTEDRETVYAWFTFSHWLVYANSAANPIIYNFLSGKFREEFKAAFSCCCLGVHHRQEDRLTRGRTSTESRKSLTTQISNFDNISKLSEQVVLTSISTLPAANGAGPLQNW
# Assay: Measurement of orexin type 2 receptor agonist activity (calcium fluorescence, Fluo-4 AM, FDSS)
# Format: cell-based
# Conditions: test compound 3 μM; CHO cells expressing human OX2 receptor; DMSO = 0%, orexin A (human) = 100%
# Method in brief: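 Agonist response scaled between vehicle (0%) and human orexin A at 10 nM final (100%), from 2-min kinetic Fluo-4 fluorescence reads. Stable hOX2R CHO-K1 clone, dye-loaded in HBSS/20 mM HEPES/0.1% BSA with 1.25 mM probenecid before compound addition.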
row,"OX2R agonist activity (3 μM, %) [%]",Structure (SMILES)
1,91,"Cc1scc(-c2c(F)cccc2F)c1C1CC1C(=O)N1CCC(NS(C)(=O)=O)C1 (racemic) [Example 329, a mixture of rac-N-[(3R)-1-{(1R,2R)-2-[4-(2,6-difluorophenyl)-2-methylthiophen-3-yl]cyclopropane-1-carbonyl}pyrrolidin-3-yl]methanesulfonamide and rac-N-[(3S)-1-{(1R,2R)-2-[4-(2,6-difluorophenyl)-2-methylthiophen-3-yl]cyclopropane-1-carbonyl}pyrrolidin-3-yl]methanesulfonamide]"
2,103,"CCS(=O)(=O)NC1CCCN(C(=O)C2CC2c2ccccc2-c2c(F)cccc2F)C1 (racemic) [Example 28, a mixture of rac-N-{(3R)-1-[(1R,2R)-2-(2′,6′-difluoro[1,1′-biphenyl]-2-yl)cyclopropane-1-carbonyl]piperidin-3-yl}ethanesulfonamide and rac-N-{(3S)-1-[(1R,2R)-2-(2′,6′-difluoro[1,1′-biphenyl]-2-yl)cyclopropane-1-carbonyl]piperidin-3-yl}ethanesulfonamide]"
3,97,"CS(=O)(=O)N[C@H]1CCN(C(=O)C2CC2c2c(-c3c(F)cccc3F)csc2F)C1 (stereo partly drawn) [Example 368, N-[(3S)-1-{(1R,2R)-2-[4-(2,6-difluorophenyl)-2-fluorothiophen-3-yl]cyclopropane-1-carbonyl}pyrrolidin-3-yl]methanesulfonamide, or N-[(3S)-1-{(1S,2S)-2-[4-(2,6-difluorophenyl)-2-fluorothiophen-3-yl]cyclopropane-1-carbonyl}pyrrolidin-3-yl]methanesulfonamide]"
4,98,"CC1C(C(=O)N2CCCC[C@H](NS(C)(=O)=O)C2)C1c1ccccc1-c1c(F)cccc1F (mixture of isomers) [Example 311, a mixture of N-{(3S)-1-[(1R,2R,3S)-2-(2′,6′-difluoro[1,1′-biphenyl]-2-yl)-3-methylcyclopropane-1-carbonyl]azepan-3-yl}methanesulfonamide and N-{(3S)-1-[(1S,2S,3R)-2-(2′,6′-difluoro[1,1′-biphenyl]-2-yl)-3-methylcyclopropane-1-carbonyl]azepan-3-yl}methanesulfonamide]"
5,102,"CS(=O)(=O)NC1CCCN(C(=O)C2CC2c2c(F)cccc2-c2c(F)cccc2F)CC1 (racemic) [Example 32, a mixture of rac-N-{(4R)-1-[(1R,2R)-2-(2′,3,6′-trifluoro[1,1′-biphenyl]-2-yl)cyclopropane-1-carbonyl]azepan-4-yl}methanesulfonamide and rac-N-{(4S)-1-[(1R,2R)-2-(2′,3,6′-trifluoro[1,1′-biphenyl]-2-yl)cyclopropane-1-carbonyl]azepan-4-yl}methanesulfonamide]"
6,93,"CS(=O)(=O)N[C@H]1CCCCN(C(=O)C2CC2(F)c2ccccc2-c2c(F)cccc2F)C1 (mixture of isomers) [Example 291, a mixture of N-{(3S)-1-[(1R,2R)-2-(2′,6′-difluoro[1,1′-biphenyl]-2-yl)-2-fluorocyclopropane-1-carbonyl]azepan-3-yl}methanesulfonamide and N-{(3S)-1-[(1S,2S)-2-(2′,6′-difluoro[1,1′-biphenyl]-2-yl)-2-fluorocyclopropane-1-carbonyl]azepan-3-yl}methanesulfonamide]"
7,103,"CS(=O)(=O)NC1CN(C(=O)C2CC2c2ccc(F)cc2-c2c(F)cccc2F)CC1(F)F (stereo not drawn) [Example 245, N-{4,4-difluoro-1-[2-(2′,5,6′-trifluoro[1,1′-biphenyl]-2-yl)cyclopropane-1-carbonyl]pyrrolidin-3-yl}methanesulfonamide optical isomer]"
8,63,"CS(=O)(=O)NCC1CN(C(=O)C2CC2c2ccccc2-c2c(F)cccc2F)CC1(F)F (racemic) [Example 285, a mixture of rac-N-({(3R)-1-[(1R,2R)-2-(2′,6′-difluoro[1,1′-biphenyl]-2-yl)cyclopropane-1-carbonyl]-4,4-difluoropyrrolidin-3-yl}methyl)methanesulfonamide and rac-N-({(3S)-1-[(1R,2R)-2-(2′,6′-difluoro[1,1′-biphenyl]-2-yl)cyclopropane-1-carbonyl]-4,4-difluoropyrrolidin-3-yl}methyl)methanesulfonamide]"
9,101,"CS(=O)(=O)N[C@H]1C[C@@H](O)CN(C(=O)[C@@H]2C[C@@]2(F)c2ccccc2-c2c(F)cccc2F)C1 [Example 341, N-{(3S,5R)-1-[(1S,2S)-2-(2′,6′-difluoro[1,1′-biphenyl]-2-yl)-2-fluorocyclopropane-1-carbonyl]-5-hydroxypiperidin-3-yl}methanesulfonamide]"
10,94,"CS(=O)(=O)NCC12CC(C1)N(C(=O)[C@@H]1C[C@@]1(F)c1ccccc1-c1c(F)cccc1F)C2 [Example 359, N-({2-[(1S,2S)-2-(2′,6′-difluoro[1,1′-biphenyl]-2-yl)-2-fluorocyclopropane-1-carbonyl]-2-azabicyclo[2.1.1]hexan-4-yl}methyl)methanesulfonamide]"
11,101,"O=C(C1CC1c1ccccc1-c1c(F)cccc1F)N1CCC[C@H](NS(=O)(=O)CF)C1 (mixture of isomers) [Example 207, a mixture of N-{(3S)-1-[(1R,2R)-2-(2′,6′-difluoro[1,1′-biphenyl]-2-yl)cyclopropane-1-carbonyl]piperidin-3-yl}-1-fluoromethanesulfonamide and N-{(3S)-1-[(1S,2S)-2-(2′,6′-difluoro[1,1′-biphenyl]-2-yl)cyclopropane-1-carbonyl]piperidin-3-yl}-1-fluoromethanesulfonamide]"
12,67,"CS(=O)(=O)NC1CCCN(C(=O)C2CC2c2ncccc2-c2c(F)cccc2F)C1 (racemic) [Example 189, a mixture of rac-N-[(3R)-1-{(1R,2R)-2-[3-(2,6-difluorophenyl)pyridin-2-yl]cyclopropane-1-carbonyl}piperidin-3-yl]methanesulfonamide and rac-N-[(3S)-1-{(1R,2R)-2-[3-(2,6-difluorophenyl)pyridin-2-yl]cyclopropane-1-carbonyl}piperidin-3-yl]methanesulfonamide]"
13,80,"Cc1cc(-c2c(F)cccc2F)c(C2CC2C(=O)N2CC[C@H](NS(C)(=O)=O)C2)cn1 (mixture of isomers) [Example 268, a mixture of rac-N-[(3R)-1-{(1R,2R)-2-[4-(2,6-difluorophenyl)-6-methylpyridin-3-yl]cyclopropane-1-carbonyl}pyrrolidin-3-yl]methanesulfonamide and rac-N-[(3S)-1-{(1R,2R)-2-[4-(2,6-difluorophenyl)-6-methylpyridin-3-yl]cyclopropane-1-carbonyl}pyrrolidin-3-yl]methanesulfonamide]"
14,100,"CC1C(C(=O)N2CCC[C@H](NS(C)(=O)=O)CC2)C1c1ccccc1-c1c(F)cccc1F (mixture of isomers) [Example 308, a mixture of N-{(4S)-1-[(1R,2R,3S)-2-(2′,6′-difluoro[1,1′-biphenyl]-2-yl)-3-methylcyclopropane-1-carbonyl]azepan-4-yl}methanesulfonamide and N-{(4S)-1-[(1S,2S,3R)-2-(2′,6′-difluoro[1,1′-biphenyl]-2-yl)-3-methylcyclopropane-1-carbonyl]azepan-4-yl}methanesulfonamide]"
